How the values were obtained:
visual cycle isomerase [1] = biological target: T1, visual cycle isomerase (Mus musculus, UniProt Q91ZQ5); assay: in vivo isomerase assay single dose, mice
T1 sequence (Q91ZQ5 1-533): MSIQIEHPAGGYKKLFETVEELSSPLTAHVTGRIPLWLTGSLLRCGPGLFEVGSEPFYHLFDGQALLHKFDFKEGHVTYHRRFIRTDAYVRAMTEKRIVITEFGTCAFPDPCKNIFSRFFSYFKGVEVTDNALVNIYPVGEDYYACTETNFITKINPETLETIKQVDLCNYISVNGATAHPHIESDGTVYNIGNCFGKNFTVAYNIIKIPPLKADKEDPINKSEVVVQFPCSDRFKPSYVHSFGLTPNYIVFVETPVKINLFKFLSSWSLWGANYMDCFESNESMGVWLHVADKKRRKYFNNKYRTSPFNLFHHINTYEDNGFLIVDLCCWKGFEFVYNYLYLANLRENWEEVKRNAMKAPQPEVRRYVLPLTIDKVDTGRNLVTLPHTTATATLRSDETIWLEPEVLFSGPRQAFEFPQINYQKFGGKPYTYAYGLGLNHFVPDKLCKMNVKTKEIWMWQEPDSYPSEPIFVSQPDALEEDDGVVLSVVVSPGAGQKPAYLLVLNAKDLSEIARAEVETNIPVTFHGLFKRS

visual cycle isomerase [2] = biological target: T2, visual cycle isomerase (Homo sapiens, UniProt Q16518); assay: in vitro isomerase activity; assay type: biochemical
T2 sequence (Q16518 1-533): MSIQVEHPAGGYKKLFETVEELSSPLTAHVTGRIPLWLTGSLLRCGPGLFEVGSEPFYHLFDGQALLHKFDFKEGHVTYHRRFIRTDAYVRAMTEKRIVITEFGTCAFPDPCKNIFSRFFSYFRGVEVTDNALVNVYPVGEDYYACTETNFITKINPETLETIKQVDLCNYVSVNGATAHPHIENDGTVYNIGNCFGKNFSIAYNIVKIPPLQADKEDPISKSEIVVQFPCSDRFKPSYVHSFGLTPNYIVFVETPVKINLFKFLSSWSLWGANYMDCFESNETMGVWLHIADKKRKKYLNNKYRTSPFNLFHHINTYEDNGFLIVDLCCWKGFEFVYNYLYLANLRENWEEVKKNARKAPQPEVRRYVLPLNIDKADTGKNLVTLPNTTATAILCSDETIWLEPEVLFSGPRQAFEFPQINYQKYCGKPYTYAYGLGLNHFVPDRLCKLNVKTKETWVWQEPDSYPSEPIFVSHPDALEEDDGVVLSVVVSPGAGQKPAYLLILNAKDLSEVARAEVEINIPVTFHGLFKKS

VEGF = VEGF up-regulation caused by hypoxic conditions; assay type: in vivo; details: for VEGF mRNA levels: compared to vehicle control
Procedure: FIG. 8 depicts a protocol used to test if ACU-4935 reduced VEGF up-regulation caused by hypoxic conditions. Briefly, animals were adapted for dark for 16 hours, then dosed with ACU-4935. Animals were photobleached for 10 minutes with 50000 Lux 2 hours after being dosed, followed by a 2 hour recovery in the dark. Hypoxia was induced with 6% O2 for 6 hours. A portion of the animals were euthanized and samples were collected at time 0. Another portion of the animals were returned to the dark for 2 more hours prior to being euthanized and sample collection.
Samples were tested for VEGF protein (FIG. 9) and mRNA expression (FIG. 10).

[3] = tested on: retinal neovascularization; assay: Retinal neovascularization in mouse model of oxygen-induced retinopathy (OIR); details: OIR mice; for Retinal neovascular area reduced: 4 days
Procedure: Pups were euthanized on P17, when neovascularization was maximal and eyes were removed for analysis.
Areas of retinal neovascularization were visualized with isoelectin staining of flatmount preparations and quantified with the lasso tool in Adobe Photoshop; total area of neovascularization indicated the sum of individual areas across the retina, and % neovascularization was relative to the total area of the retina^4.
Statistical analyses were performed using GraphPad Prism software.

[4] = tested on: retinal cationic activity (Mn2+ uptake); assay: Manganese-enhanced MRI (MEMRI) single dose study; details: rats, Mn2+ uptake by MRI
Procedure: Rats are to be maintained in regular laboratory lighting (12 hours light, 12 hours dark) prior to start of experimental period—light exposure, bleaching, dark adaption will vary by cohort (see below).
Animals are to be dosed by oral gavage according to group assignment below. Rats are to be weighed each week of the experimental period.
Dilate pupils by applying 1 drop of tropicamide (0.5%) 10-30 minutes before photobleaching. Photobleach animals for 10 minutes by exposure to 5000 lux 4 hours before MRI imaging.
Inject rats immediately after bleach, 4 hours prior to the start of imaging session. MEMRI signal reflects state of expression of activity-dependent channels during experimental period.
Keep rats in dark (IOP room) during the 4 hours between injection and transport to the imaging center for practice experiments for all groups except group 4. Keep animals from group 4 exposed to light during 4 hours between MnCl2 injection and MRI imaging. Otherwise follow light-dark-bleaching cycle described for each cohort.
A snapshot FLASH inversion recovery (IR) imaging sequence is used to acquire a single imaging slice bisecting the retina in the axial and sagittal planes, using a 12 mm inner diameter linear surface coil. […] The approximate scan time per animal is ˜16 minutes. […]

With `CCCC(CCC)COc1cccc([C@H](O)CCN)c1` [ACU-4935, (R)-3-amino-1-(3-(2-propylpentyloxy)phenyl)propan-1-ol] the ED50 (visual cycle isomerase [1]) was 0.4 µg/kg, the IC50 (visual cycle isomerase [2]) was 5.2 nM and the “VEGF mRNA levels” value (VEGF; 2 hours post-hypoxia) was “slightly increased”. The VEGF protein expression (VEGF; after 6% O2 for 6 hours, vs vehicle) was “Slight differences”, the “VEGF mRNA levels” value (VEGF; time 0 after hypoxia) was “decreased” and the “Retinal neovascular area reduced” value ([3]; 0.3 mg/kg/day intraperitoneal, vs vehicle) was 23%. For the same compound, the “Retinal neovascular area compared to treatment with vehicle” value [3] was “significantly reduced”.
With `CC(=O)NCC=C(C)C=CC=C(C)C=CC1=C(C)CCCC1(C)C` [Retinyl acetamide] the “Retinal behaviour after bleach and dark adaptation (expectation)” value [4] was “behave as if they were light adapted”.
`CN(C)C[C@@H]1CCn2cc(c3ccccc32)C2=C(C(=O)NC2=O)c2cn(c3ccccc23)CCO1` [Ruboxistaurin, reference compound] was tested, and the “Retinal neovascular area reduced” value ([3]; 10 mg/kg/day intraperitoneal, positive control) was 29%.

— US10730825B2, “Methods for the treatment of diabetic retinopathy and other ophthalmic diseases” (Acucela Inc., priority 2012, dated 2020)
